In one experiment the target is MT1 receptor (Homo sapiens, UniProt P48039). The experiment is described as follows: Melatonin MT1 receptor binding study. The following applies: 2-[125I]-iodomelatonin radioligand. Here is the method: (§1) The MT1 or MT2 receptor binding experiments are carried out using 2-[^125I]-iodomelatonin as reference radioligand. The radioactivity retained is determined using a liquid scintillation counter.
(§2) Competitive binding experiments are then carried out in triplicate using the various test compounds. A range of different concentrations is tested for each compound. The results enable the binding affinities of the compounds tested (Ki) to be determined.

The target in the next experiment is T1, MT2 receptor (Homo sapiens, UniProt P49286).
T1 sequence (P49286 1-362): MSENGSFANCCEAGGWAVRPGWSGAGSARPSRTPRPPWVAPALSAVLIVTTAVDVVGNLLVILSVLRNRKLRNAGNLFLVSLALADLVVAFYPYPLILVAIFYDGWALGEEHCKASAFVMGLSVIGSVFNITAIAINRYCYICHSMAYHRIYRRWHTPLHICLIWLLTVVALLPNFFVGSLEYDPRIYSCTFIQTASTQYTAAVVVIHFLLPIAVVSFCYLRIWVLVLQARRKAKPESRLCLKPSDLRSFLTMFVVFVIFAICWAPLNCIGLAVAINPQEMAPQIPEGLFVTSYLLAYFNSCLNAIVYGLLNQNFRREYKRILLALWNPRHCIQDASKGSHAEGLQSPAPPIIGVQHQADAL
The experiment can be described thus: Melatonin MT2 receptor binding study. The following applies: 2-[125I]-iodomelatonin radioligand. The method, then: as §1, §2

In another experiment the target is T2, human 5-HT2C receptor (Homo sapiens, UniProt P28335).
T2 construct: expressed in transfected cells
T2 sequence (P28335 33-458): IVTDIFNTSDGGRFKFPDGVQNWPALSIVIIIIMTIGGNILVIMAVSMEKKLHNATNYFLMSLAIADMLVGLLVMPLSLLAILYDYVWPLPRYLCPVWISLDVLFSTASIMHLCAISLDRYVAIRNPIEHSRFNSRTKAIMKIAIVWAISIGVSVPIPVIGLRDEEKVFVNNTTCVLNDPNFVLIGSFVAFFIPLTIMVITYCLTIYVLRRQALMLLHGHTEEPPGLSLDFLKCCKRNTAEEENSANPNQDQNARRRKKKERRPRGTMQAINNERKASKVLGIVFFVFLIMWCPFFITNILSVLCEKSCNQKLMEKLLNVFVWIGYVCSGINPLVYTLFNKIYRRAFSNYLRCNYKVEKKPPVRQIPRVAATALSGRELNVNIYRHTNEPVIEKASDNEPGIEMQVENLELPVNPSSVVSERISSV
The experiment is described as follows: Serotoninergic 5-HT2C receptor binding study. The following applies: CHO cell membranes, [3H]-mesulergine (1 nM). Here is the method: The affinity of the compounds for the human 5-HT2C receptor is evaluated on membrane preparations from CHO cells stably expressing that receptor.
Incubation is carried out in 50 mM TRIS buffer, pH 7.4, containing 10 mM MgCl2 and
0.1% BSA, in the presence of [^3H]-mesulergine (1 nM) and 25 fmol/ml of receptor. Non-specific binding is determined in the presence of 10 μM mianserin.
The reaction is stopped by the addition of 50 mM TRIS buffer, pH 7.4, followed by a filtration step and 3 successive rinses: the radioactivity bound to the membranes remaining on the filters (GF/B pretreated with 0.1% PEI) is determined by liquid scintillation counting.

pKi: −log10 of the molar value.

The results in this text go back to patent US20100137446A1, “NAPHTHALENE COMPOUNDS, A PROCESS FOR THEIR PREPARATION AND PHARMACEUTICAL COMPOSITIONS CONTAINING THEM” (priority 2007, published 2010).

Chain of MT1 receptor (P48039 whole entry): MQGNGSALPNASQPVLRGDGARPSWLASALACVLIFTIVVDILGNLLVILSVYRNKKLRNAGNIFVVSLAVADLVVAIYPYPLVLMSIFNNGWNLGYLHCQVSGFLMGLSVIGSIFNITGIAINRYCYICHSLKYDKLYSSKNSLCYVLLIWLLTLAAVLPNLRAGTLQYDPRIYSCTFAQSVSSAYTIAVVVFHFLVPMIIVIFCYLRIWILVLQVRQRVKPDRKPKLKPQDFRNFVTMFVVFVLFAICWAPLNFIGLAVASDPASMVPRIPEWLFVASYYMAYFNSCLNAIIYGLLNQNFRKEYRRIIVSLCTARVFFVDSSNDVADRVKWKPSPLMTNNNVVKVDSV

By pKi is commonly meant the negative decadic logarithm of the Ki, by convention in mol/L. Lower therefore signals a high Ki. Regarding `COc1ccc2cccc(C(CF)CNC(C)=O)c2c1` (stereo not drawn) [Example 5, N-[3-Fluoro-2-(7-methoxy-1-naphthyl)propyl]acetamide], the values for the pKi at MT1 receptor, on MT2 receptor and on human 5-HT2C receptor were 10.00, 9.70 and 5.22, respectively.
